Values of other authors in patent US20020177614A1, “Methods for treating nuerodegenerative diseases including alzheimer's” (priority 2001, published 2002).

Tested on: Diphtheria and Pseudomonas toxins
Settings: several bacterial ADP-ribosylating toxins, including Diphtheria and Pseudomonas toxins

For `NC(=O)c1cccnc1` [nicotinamide], the “effect on bacterial ADP-ribosylating toxins” value is given as “prevent or reverse the effects”.
